Data set [1] can be described thus: Lipophilicity value was evaluated. It counts as physicochemical. The following applies: octanol/water.
Data set [2] concerns the target T1, Adenosine receptor A1 (Rattus norvegicus, UniProt P25099).
T1 sequence (P25099 whole entry): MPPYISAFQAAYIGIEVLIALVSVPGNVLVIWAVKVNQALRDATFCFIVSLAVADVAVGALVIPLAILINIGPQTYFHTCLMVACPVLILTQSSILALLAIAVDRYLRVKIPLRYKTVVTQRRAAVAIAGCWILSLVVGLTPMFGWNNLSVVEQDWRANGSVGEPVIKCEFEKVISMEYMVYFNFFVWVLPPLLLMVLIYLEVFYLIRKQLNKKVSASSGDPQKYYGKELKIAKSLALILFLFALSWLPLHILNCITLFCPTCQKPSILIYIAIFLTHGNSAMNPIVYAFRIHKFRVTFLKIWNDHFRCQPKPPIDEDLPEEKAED

The target in data set [3] is Adenosine A2 receptor (Rattus norvegicus, UniProt P29276+P30543).
Description: Displacement of [3H]-NECA from adenosine A2 receptor of rat striatal membrane

In turn, `OC[C@H]1O[C@@H](n2cnc3c(NC4CCC4)ncnc32)[C@H](O)[C@@H]1O` returned a Log k in data set [1] of 1.22. For the same compound, the Ki stood at 0.777 nM in data set [2] and 263 nM in data set [3].
`OC[C@H]1O[C@@H](n2cnc3c(NC4CCCCCC4)ncnc32)[C@H](O)[C@@H]1O`: in data set [1], the Log k worked out at 2.4. In addition, the figures for the Ki in data set [2] and in data set [3] were 2.79 nM and 1690 nM, respectively.
For the compound `OC[C@H]1OC(n2cnc3c(NC4CCCCCCCCC4)ncnc32)[C@H](O)[C@@H]1O` (some centres undefined), the Log k in data set [1] is listed as 3.62. In addition, the Ki in data set [2] came out at 100 nM; in data set [3], 5190 nM.
In data set [2], `Nc1nc(Cl)nc2c1ncn2[C@@H]1O[C@H](CO)[C@@H](O)[C@H]1O` gave a Ki of 8.74 nM.
Compound `OC[C@H]1OC(n2cnc3c(NC4CCCCCCCCCCC4)ncnc32)[C@H](O)[C@@H]1O` (some centres undefined) showed a Log k in data set [1] of 4.52. The results for the inhibition constant (Ki) in data set [2] and in data set [3] were 5390 nM and 47700 nM, respectively.
In turn, `OC[C@H]1O[C@@H](n2cnc3c(NC4CC4)ncnc32)[C@H](O)[C@@H]1O` showed a Log k in data set [1] of 0.53. For the same compound, the Ki in data set [2] turned out to be 319 nM; in data set [3], 1240 nM.
In data set [1], `OC[C@H]1O[C@@H](n2cnc3c(NC4CCCCC4)ncnc32)[C@H](O)[C@@H]1O` gave a Log k of 1.6.
Regarding `OC[C@H]1O[C@@H](n2cnc3c(NC4CCCC4)ncnc32)[C@H](O)[C@@H]1O` [N6-CYCLOPENTYLADENOSINE], the Log k in data set [1] is listed as 1.56. In data set [3], this compound returned a Ki of 462 nM.
For the compound `Cn1c(=O)[nH]c2c(ncn2C2O[C@H](CO)[C@@H](O)[C@H]2O)c1=N` (some centres undefined), the Ki in data set [2] worked out at 144 nM; in data set [3] it was 3250 nM.
`OC[C@H]1O[C@@H](n2cnc3c(NC4CCCCCCC4)ncnc32)[C@H](O)[C@@H]1O` showed a Log k in data set [1] of 2.9. Moreover, the Ki in data set [2] turned out to be 4.03 nM; in data set [3], 2450 nM.

One may read the Ki as a dissociation constant, usually derived from enzyme kinetics or from competition with a known ligand. Read a high Ki as lower affinity.

The values above are taken from ChEMBL document CHEMBL1122939, “N6-cycloalkyladenosines. Potent, A1-selective adenosine agonists” (J Med Chem, 1985).
